Results as given in patent US20120220567A1, “BENZO-FUSED OXAZEPINE COMPOUNDS AS STEAROYL-COENZYME A DELTA-9 DESATURASE INHIBITORS” (priority 2009, published 2012).
pIC50: −log10 of the molar value.

Biological target: T1, SCD-1 (Homo sapiens, UniProt O00767)
T1 construct: 50 μg of protein from a HepG2 cell P2 pellet; endogenous in cells; host or cells: HepG2 cells (P2 pellet)
T1 sequence (O00767 1-359): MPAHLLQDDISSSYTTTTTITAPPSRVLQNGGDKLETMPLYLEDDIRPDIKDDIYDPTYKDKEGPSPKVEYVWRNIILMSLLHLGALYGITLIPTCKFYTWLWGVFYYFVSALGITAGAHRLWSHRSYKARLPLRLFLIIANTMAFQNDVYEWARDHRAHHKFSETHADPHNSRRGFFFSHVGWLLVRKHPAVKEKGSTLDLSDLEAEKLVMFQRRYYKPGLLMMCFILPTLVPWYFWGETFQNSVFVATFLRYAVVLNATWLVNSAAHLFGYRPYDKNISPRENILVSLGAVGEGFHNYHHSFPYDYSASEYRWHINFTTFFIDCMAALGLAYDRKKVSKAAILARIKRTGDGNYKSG
Experiment: Stearoyl-CoA desaturase assay (HepG2 cell P2 pellet)
Format: biochemical
Settings: Table 1, compounds of formula (Ia); protein from HepG2 cell P2 pellet, 20 μM stearoyl-CoA, 15 min at 25° C.; read-out: Ave IC50
Experimental: Stearoyl-CoA desaturase assays were performed in according to Talamo and Bloch. […] Assays were run in triplicate in 100-μl volumes of 100 mM TrisHCl, pH 7.3, containing 20 μM stearoyl-CoA, 2 mM β-NADH, and 50 μg of protein from a HepG2 cell P2 pellet. Since SCD-1 is the only isoform of SCD expressed in these cells, the assay is specific for SCD-1 with these cells as the source of enzyme. Reaction mixtures were incubated fifteen minutes at 25° C. and reactions were then stopped with a volume of trichloroacetic acid giving a final concentration of 0.2%. After five minutes, a 90-μl volume was transferred to a Millipore Multiscreen HTS 96-well filtration plate (MSHVN4B50) containing 125 μl of 10% charcoal in each well, to which vacuum had been previously applied. Plates were shaken fifteen minutes and then filtered into a collection plate. Fifty-μI volumes of filtrate were transferred to another plate containing 150 μl of MicroScint 40 for counting on a TopCount scintillation counter.

CC(=O)NCC(=O)N1CCC2(CC1)CCN(Cc1ccc(C(C)(C)C)cc1)c1cccc(F)c1O2 [Compound 46] and CC(=O)NCC(=O)N1CCC2(CC1)CCN(Cc1cccc(Br)c1)c1ccccc1O2 [Compound 39] fall in the same range of pIC50: 5.00 to 6.30 for the first, 5.00 to 6.30 for the second.

CC(=O)NCC(=O)N1CCC2(CC1)CCN(Cc1ccccc1)c1ccccc1O2 [Compound 30] and CC(=O)NCC(=O)N1CCC2(CC1)CCN(Cc1ccccc1C)c1ccccc1O2 [Compound 41] fall in the same range of pIC50: 5.00 to 6.30 for the first, 5.00 to 6.30 for the second.

CC(=O)NCC(=O)N1CCC2(CC1)CCN(Cc1cccc(OC(F)(F)F)c1)c1ccccc1O2 [Compound 36] and CC(=O)NCC(=O)N1CCC2(CC1)CCN(Cc1ccccc1Br)c1ccccc1O2 [Compound 37] fall in the same range of pIC50: 5.00 to 6.30 for the first, 5.00 to 6.30 for the second.

CCc1ccc(CN2CCC3(CCN(C(=O)CNC(=O)Cc4ccccn4)CC3)Oc3ccccc32)cc1 [Compound 10] gave a pIC50 of less than 5.00.

Same assay, conditions: Table 2, compounds of formula (Ib); protein from HepG2 cell P2 pellet, 20 μM stearoyl-CoA, 15 min at 25° C.; read-out: Ave IC50

First: CC(C)(C)c1ccc(CN2CCC3(CCN(c4ncc(C(=O)NCc5ccccc5)s4)CC3)Oc3ccccc32)cc1 [Compound 67]
Second: CNC(=O)c1cnc(N2CCC3(CC2)CCN(Cc2ccc(C(C)(C)C)cc2)c2ccccc2O3)s1 [Compound 70]
The pIC50 of the first is lower: 5.00 to 6.30 for the first, 7.31 to 9.30 for the second.

First: CC(C)(C)c1ccc(CN2CCC3(CCN(c4ncc(C(=O)NCc5ccccc5F)s4)CC3)Oc3c(F)cccc32)cc1 [Compound 87]
Second: CC(C)(C)c1ccc(CN2CCC3(CCN(c4ncc(C(=O)NCc5ccco5)s4)CC3)Oc3c(F)cccc32)cc1 [Compound 102]
The pIC50 of the first is higher: 6.30 to 7.30 for the first, 5.00 to 6.30 for the second.

First: O=C(O)c1cnc(N2CCC3(CC2)CCN(Cc2cccc(C(F)(F)F)c2)c2ccccc2O3)s1 [Compound 54, 2-(5-(3-(trifluoromethyl)benzyl)-4,5-dihydro-3H-spiro[benzo[b][1,4]oxazepine-2,4′-piperidine]-1′-yl)thiazole-5-carboxylic Acid]
Second: O=C(NCc1ccccc1)c1cnc(N2CCC3(CC2)CCN(Cc2cccc(C(F)(F)F)c2)c2ccccc2O3)s1 [Compound 57]
The pIC50 of the first is higher: 7.31 to 9.30 for the first, 5.00 to 6.30 for the second.

First: CC(C)(C)c1ccc(CN2CCC3(CCN(c4ncc(C(=O)NCCCO)s4)CC3)Oc3c(F)cccc32)cc1 [Compound 96]
Second: COCCNC(=O)c1cnc(N2CCC3(CC2)CCN(Cc2ccc(C(C)(C)C)cc2)c2cccc(F)c2O3)s1 [Compound 103]
The pIC50 of the first is higher: 7.31 to 9.30 for the first, 6.30 to 7.30 for the second.

First: CC(C)(C)c1ccc(CN2CCC3(CCN(c4ncc(C(=O)NCCCO)s4)CC3)Oc3ccccc32)cc1 [Compound 134]
Second: CC(C)(C)c1ccc(CN2CCC3(CCN(c4ncc(C(=O)NCCCCCC(=O)O)s4)CC3)Oc3c(F)cccc32)cc1 [Compound 124]
The pIC50 of the first is higher: 7.31 to 9.30 for the first, 5.00 to 6.30 for the second.

First: Cc1n[nH]c(C)c1CCNC(=O)c1cnc(N2CCC3(CC2)CCN(Cc2ccc(C(C)(C)C)cc2)c2cccc(F)c2O3)s1 [Compound 100]
Second: Cc1ccc(CCNC(=O)c2cnc(N3CCC4(CC3)CCN(Cc3ccc(C(C)(C)C)cc3)c3cccc(F)c3O4)s2)s1 [Compound 78]
The pIC50 of the first is lower: less than 5.00 for the first, 5.00 to 6.30 for the second. The second is the more potent here.

CC(C)(C)c1ccc(CN2CCC3(CCN(c4ncc(C(=O)NCCc5ccsc5)s4)CC3)Oc3c(F)cccc32)cc1 [Compound 92] was tested, and the pIC50 was 5.00 to 6.30.

Same assay, conditions: Table 3, compounds of formula (Ic); protein from HepG2 cell P2 pellet, 20 μM stearoyl-CoA, 15 min at 25° C.; read-out: Ave IC50

CC(C)(C)c1ccc(CN2CCC3(CCN(c4ccc(C(=O)NCCC5CC5)nn4)CC3)Oc3ccccc32)cc1 [Compound 140] and CCc1ccc(CN2CCC3(CCN(c4ccc(C(=O)NCCC5CC5)nn4)CC3)Oc3ccccc32)cc1 [Compound 176] fall in the same range of pIC50: 7.31 to 9.30 for the first, 7.31 to 9.30 for the second.

Compared with O=C(NCCc1ccccc1)c1ccc(N2CCC3(CC2)CCN(Cc2cccc(C(F)(F)F)c2)c2ccccc2O3)nn1 [Compound 155], O=C(NCCCO)c1ccc(N2CCC3(CC2)CCN(Cc2cccc(C(F)(F)F)c2)c2ccccc2O3)nn1 [Compound 161] is lower in pIC50: 7.31 to 9.30 for the first, 6.30 to 7.30 for the second. The first is the more potent here.

O=C(O)c1ccc(N2CCC3(CC2)CCN(Cc2cccc(C(F)(F)F)c2)c2ccccc2O3)nn1 [Compound 172, 6-(5-(3-(trifluoromethyl)benzyl)-4,5-dihydro-3H-spiro[benzo-[b][1,4]oxazepine-2,4′-piperidine]-1′-yl)pyridazine-3-carboxylic Acid] and COC(=O)c1ccc(N2CCC3(CC2)CCN(Cc2ccc(C(C)(C)C)cc2)c2ccccc2O3)nn1 [Compound 139] fall in the same range of pIC50: 5.00 to 6.30 for the first, 5.00 to 6.30 for the second.
